Molecular target: Vascular endothelial growth factor receptor 2 (Homo sapiens, UniProt P35968)
Assay: Inhibition of VEGFR-2 (unknown origin) at 10 uM after 1 hr by Z'LYTE assay

Chain of Vascular endothelial growth factor receptor 2 (P35968 whole entry): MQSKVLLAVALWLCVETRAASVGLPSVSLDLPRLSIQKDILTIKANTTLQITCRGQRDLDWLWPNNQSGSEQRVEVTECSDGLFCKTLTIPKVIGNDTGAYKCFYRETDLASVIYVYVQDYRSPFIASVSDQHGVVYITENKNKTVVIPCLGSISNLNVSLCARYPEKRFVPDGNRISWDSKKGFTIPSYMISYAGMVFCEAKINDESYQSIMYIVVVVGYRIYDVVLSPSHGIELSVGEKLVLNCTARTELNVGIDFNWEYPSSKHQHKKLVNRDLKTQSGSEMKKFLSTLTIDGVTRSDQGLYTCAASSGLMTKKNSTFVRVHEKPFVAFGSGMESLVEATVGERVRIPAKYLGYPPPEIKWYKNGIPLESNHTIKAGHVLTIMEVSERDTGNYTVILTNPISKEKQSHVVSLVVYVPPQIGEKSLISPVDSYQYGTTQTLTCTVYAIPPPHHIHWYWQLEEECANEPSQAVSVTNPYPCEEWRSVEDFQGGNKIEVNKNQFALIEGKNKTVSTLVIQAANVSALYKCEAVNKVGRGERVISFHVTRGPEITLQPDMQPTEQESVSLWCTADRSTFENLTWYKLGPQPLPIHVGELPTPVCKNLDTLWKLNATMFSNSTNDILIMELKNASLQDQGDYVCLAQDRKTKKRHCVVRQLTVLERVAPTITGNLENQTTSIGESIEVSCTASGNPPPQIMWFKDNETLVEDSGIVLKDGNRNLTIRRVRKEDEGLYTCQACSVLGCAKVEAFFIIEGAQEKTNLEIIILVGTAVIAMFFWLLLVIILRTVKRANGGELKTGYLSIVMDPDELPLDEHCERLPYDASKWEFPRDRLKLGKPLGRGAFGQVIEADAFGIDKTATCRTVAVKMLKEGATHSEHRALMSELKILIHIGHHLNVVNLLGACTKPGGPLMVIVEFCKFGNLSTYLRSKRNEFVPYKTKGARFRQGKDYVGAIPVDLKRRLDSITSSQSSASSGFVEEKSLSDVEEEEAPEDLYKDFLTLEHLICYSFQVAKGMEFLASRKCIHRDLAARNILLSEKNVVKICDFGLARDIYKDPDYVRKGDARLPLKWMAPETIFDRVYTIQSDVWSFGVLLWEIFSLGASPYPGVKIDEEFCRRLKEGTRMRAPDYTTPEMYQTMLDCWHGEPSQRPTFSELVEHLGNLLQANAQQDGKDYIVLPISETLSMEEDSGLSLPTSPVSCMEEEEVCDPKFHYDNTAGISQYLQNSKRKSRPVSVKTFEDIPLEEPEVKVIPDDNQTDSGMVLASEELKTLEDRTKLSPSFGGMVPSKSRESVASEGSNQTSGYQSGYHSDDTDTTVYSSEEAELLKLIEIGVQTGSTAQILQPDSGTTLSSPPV

inhibition [%] | SMILES
60.8 | Cc1c2ccc(Nc3ccnc(Nc4ccc(S(N)(=O)=O)cc4)n3)cc2nn1C
63.8 | Cc1c2ccc(Nc3ccnc(Nc4ccc(F)cc4)n3)cc2nn1C
